Experimental data: US4175081A, “5-Substituted thiadiazole ureas” (priority 1977, dated 1979)

Experiments:
[1] = test system: Yellow foxtail grass (YF); assay: Post-emergence herbicide test; type: in vivo, Setaria glauca; settings: Setaria, 336 h, 4 lb/acre, two weeks after treatment
Description: Yellow foxtail grass (YF)--Setaria glauca
(§1) All crop and weed species were planted individually in 3' plastic pots containing potting soil. Four seeds each of corn, cotton, and snapbeans were seeded to a depth equal to the diameter of the seed. All other species were surface seeded and sprinkled with screened soil in an amount sufficient to cover the seed. Immediately after planting, all pots were watered by sub-irrigation in greenhouse trays. Pots for the pre-emergence phase were seeded one day before treatment.
(§2) Planting dates for the post-emergence phase were varied so that all seedlings would reach the desired stage of development simultaneously. The proper stage of seedling development for treatment in the post-emergence phase is as follows:
(§3) Compounds were tested at rates of application equivalent to 8 lbs. of actual compound per acre in a spray volume of 38 gallons per acre. Spray hood constants required to deliver the above volume are as follows:
(§4) Formulations for spray applications were prepared in 50 ml volumes with the following three components:
(§5) Formulations for the 4 lbs/acre rate were prepared by adjusting the amount of active ingredient accordingly.
(§6) Spray applications were made in a hood containing a removable belt and fixed spray nozzle. For passage through the spray hood, one pot of each specie (pre-emergence phase) was placed on the rear half of the flat. Treatments were removed to the greenhouse after spraying. Watering during the observation period was done only by sub-irrigation.
(§7) Two weeks after treatment, pre- and post-emergence injury or control was visually rated, and the results were as shown in the following tables. Pre-emergence data are provided in TABLE III and post-emergence data are provided in TABLE IV, for compounds having the formula illustrated in TABLE I. Correspondingly, pre-emergence and post-emergence data, respectively, are set forth in TABLES V AND VI, for compounds having the formula illustrated in TABLE II.

Corn (CN) [2] = assay: Post-emergence herbicide test; type: in vivo; settings: Zea mays, 336 h, two weeks after treatment; for pest or weed control at 4483.4 g/ha: 4 lb/acre
Outline: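 Greenhouse seedlings grown in potting soil and sprayed post-emergence at 8 lbs compound/acre (formulations also made for 4 lbs/acre) in 38 gallons/acre spray volume. Watering by sub-irrigation only. Injury or control rated visually two weeks after treatment.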

Cotton (CT) [3] = assay: Post-emergence herbicide test; type: in vivo, Gossypium hirsutum var. DPL smooth leaf; settings: Gossypium hirsutum, post-emergence, 336 h, two weeks after treatment; for pest or weed control at 4483.4 g/ha: 4 lb/acre
Outline: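 Cotton (Gossypium hirsutum var. DPL smooth leaf) was grown in 3' plastic pots of potting soil, four seeds per pot, planted at a depth equal to the seed diameter and watered by sub-irrigation. At the stage of expanded cotyledons with the first true leaf 1' long, plants were sprayed post-emergence in a hood with a fixed nozzle over a moving belt. Percent control was rated visually two weeks later.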

Barnyard grass (BG) [4] = assay: Post-emergence herbicide test; type: in vivo; settings: Echinochloa crus-galli, 336 h, two weeks after treatment
Outline: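 Greenhouse pot-grown barnyard grass seedlings sprayed post-emergence at 8 lbs active compound per acre (some at 4 lbs/acre) in 38 gallons per acre, then sub-irrigated. Injury or control rated visually two weeks after treatment.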

Crabgrass (CG) [5] = assay: Post-emergence herbicide test; type: in vivo, Digitaria sanquinalis; settings: Digitaria sanguinalis, post-emergence, 336 h, two weeks after treatment; for pest or weed control at 4483.4 g/ha: 4 lb/acre
Outline: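 Crabgrass (Digitaria sanquinalis) was surface seeded individually in 3' plastic pots of potting soil, covered with screened soil, and watered by sub-irrigation in greenhouse trays. Planting was staggered so seedlings reached the target stage together. Post-emergence sprays were applied in a hood with a removable belt and fixed nozzle, and control was visually rated two weeks after treatment.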

Turnip (TP) [6] = assay: Post-emergence herbicide test; type: in vivo, Brassica sp.; settings: Brassica rapa, post-emergence, 336 h, two weeks after treatment; for pest or weed control at 4483.4 g/ha: 4 lb/acre
Outline: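 A greenhouse post-emergence herbicide test on turnip. Seeds were sown on the surface of potting soil in 3' plastic pots, lightly covered with screened soil and watered from below. Planting was timed so seedlings had 1 or 2 true leaves above the cotyledons at spraying, done in a hood with a fixed nozzle. Control or injury was scored by eye after two weeks.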

Johnson grass (JG) [7] = assay: Post-emergence herbicide test; type: in vivo, Sorgum helepense; settings: Sorghum halepense, 336 h, two weeks after treatment; for pest or weed control at 4483.4 g/ha: 4 lb/acre
Outline: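 Greenhouse pot-grown seedlings sprayed post-emergence at 8 lbs compound per acre (some at 4 lbs/acre) in 38 gallons per acre spray volume. Sub-irrigated thereafter. Injury/control rated visually two weeks after treatment.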

Bean (BN) [8] = assay: Post-emergence herbicide test; type: in vivo, Phaseolus vulgaris var. Black Valentine; settings: Phaseolus vulgaris, post-emergence, 336 h, two weeks after treatment; for pest or weed control at 4483.4 g/ha: 4 lb/acre
Outline: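 Snapbean (Phaseolus vulgaris var. Black Valentine) was tested post-emergence. Four seeds were sown in 3' plastic pots of potting soil at a depth equal to the seed diameter, then sub-irrigated in greenhouse trays. Planting dates were staggered so plants were sprayed once primary leaves had expanded, with the growing point at the primary leaf nodes.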

Johnson grass (JG) [9] = assay: Pre-emergence herbicide test; type: in vivo, Sorgum helepense; settings: Sorghum halepense, 336 h, two weeks after treatment
Outline: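 Pots seeded one day before spraying; compound applied pre-emergence at 8 lbs/acre (or 4 lbs/acre) in 38 gallons/acre spray volume. Sub-irrigated in greenhouse; injury/control rated visually two weeks after treatment.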

Bean (BN) [10] = assay: Pre-emergence herbicide test; type: in vivo, Phaseolus vulgaris var. Black Valentine; settings: Phaseolus vulgaris, 336 h, two weeks after treatment
Outline: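 Black Valentine bean was seeded in potting soil one day before spraying. Compound was applied pre-emergence at 8 lbs/acre (also 4 lbs/acre) in 38 gallons per acre. Plants were sub-irrigated and injury or control was rated visually after two weeks.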

Amaranth pigweed (PW) [11] = assay: Pre-emergence herbicide test; type: in vivo, Amaranthus retroflexus; settings: 336 h, two weeks after treatment
Outline: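 Pigweed was surface-seeded in potted soil one day before spraying at 8 lbs compound per acre, or 4 lbs/acre, in 38 gallons per acre. Pots were kept in the greenhouse with sub-irrigation only; injury or control was rated visually two weeks after treatment.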

Corn (CN) [12] = assay: Pre-emergence herbicide test; type: in vivo; settings: Zea mays, 336 h, two weeks after treatment
Outline: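 Four corn seeds per pot, sown at seed-diameter depth one day before spraying, got soil surface treatment at 8 lbs/acre (4 lbs/acre formulations also prepared) in 38 gallons/acre. Pots were greenhouse-held with sub-irrigation only. Injury or control was scored visually two weeks after treatment.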

Cotton (CT) [13] = assay: Pre-emergence herbicide test; type: in vivo, Gossypium hirsutum var. DPL smooth leaf; settings: Gossypium hirsutum, 336 h, two weeks after treatment
Outline: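 Crop and weed species seeded one day before treatment, then sprayed pre-emergence at 8 lbs actual compound per acre (also 4 lbs/acre formulations) in 38 gallons per acre. Pots kept in greenhouse with sub-irrigation only; injury or control visually rated two weeks after treatment.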

Turnip (TP) [14] = assay: Pre-emergence herbicide test; type: in vivo, Brassica sp.; settings: Brassica rapa, pre-emergence, 336 h, two weeks after treatment
Outline: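 Turnip (Brassica sp.) seeds were surface sown in 3' plastic pots of potting soil, covered with a thin layer of screened soil, and sub-irrigated in greenhouse trays. Pots were seeded one day ahead of treatment, sprayed pre-emergence under a hood with a fixed nozzle and moving belt, then kept in the greenhouse.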

Crabgrass (CG) [15] = assay: Pre-emergence herbicide test; type: in vivo, Digitaria sanquinalis; settings: Digitaria sanguinalis, pre-emergence, 336 h, two weeks after treatment
Outline: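 Crabgrass (Digitaria sanquinalis) was surface seeded in 3' plastic pots of potting soil, covered with screened soil, and watered by sub-irrigation in greenhouse trays. Pots were seeded one day before spraying in a hood with a moving belt and fixed nozzle. Plants stayed in the greenhouse on sub-irrigation, and pre-emergence control was rated visually two weeks after treatment.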

Amaranth pigweed (PW) [16] = assay: Post-emergence herbicide test; type: in vivo, Amaranthus retroflexus; settings: 336 h, two weeks after treatment
Description: Amaranth pigweed (PW)--Amaranthus retroflexus
as §1, §2
Pigweed and turnips: 1 or 2 true leaves above visible cotyledons.
as §3, §4, §5, §6, §7

Barnyard grass (BG) [17] = assay: Pre-emergence herbicide test; type: in vivo; settings: Echinochloa crus-galli, 336 h, 2 lb/acre, two weeks after treatment
Outline: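 Barnyard grass surface-seeded in potting soil and sprayed pre-emergence one day after seeding, at 8 or 4 lb compound/acre in 38 gal/acre spray volume. Pots kept in greenhouse with sub-irrigation only; injury or control rated visually two weeks after treatment.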

## CCC(C)Sc1nnc(NC(=O)NC)s1 (centres unmarked) [Example 48]
[1]
  pest or weed control at 4483.4 g/ha: 30%
Corn (CN) [2]
  pest or weed control at 4483.4 g/ha: 30%
Cotton (CT) [3]
  pest or weed control at 4483.4 g/ha: 100%
Barnyard grass (BG) [4]; 4 lb/acre
  pest or weed control at 4483.4 g/ha: 40%
Crabgrass (CG) [5]
  pest or weed control at 4483.4 g/ha: 70%
Turnip (TP) [6]
  pest or weed control at 4483.4 g/ha: 70%
Johnson grass (JG) [7]
  pest or weed control at 4483.4 g/ha: 60%
Bean (BN) [8]
  pest or weed control at 4483.4 g/ha: 50%

## CNC(=O)Nc1nnc(C(F)(F)C(F)(F)F)s1 [Example 68]
Johnson grass (JG) [9]; 2 lb/acre
  pest or weed control at 2241.7 g/ha: 20%
Johnson grass (JG) [9]; 4 lb/acre
  pest or weed control at 4483.4 g/ha: 30%
Bean (BN) [10]; 2 lb/acre
  pest or weed control at 2241.7 g/ha: 0%
Bean (BN) [10]; 4 lb/acre
  pest or weed control at 4483.4 g/ha: 100%
Amaranth pigweed (PW) [11]; 2 lb/acre
  pest or weed control at 2241.7 g/ha: 100%
Amaranth pigweed (PW) [11]; 4 lb/acre
  pest or weed control at 4483.4 g/ha: 100%
Corn (CN) [12]; 2 lb/acre
  pest or weed control at 2241.7 g/ha: 30%
Corn (CN) [12]; 4 lb/acre
  pest or weed control at 4483.4 g/ha: 50%
Cotton (CT) [13]; 2 lb/acre
  pest or weed control at 2241.7 g/ha: 60%
Cotton (CT) [13]; 4 lb/acre
  pest or weed control at 4483.4 g/ha: 90%
Corn (CN) [2]; 2 lb/acre
  pest or weed control: 50%
Corn (CN) [2]
  pest or weed control at 4483.4 g/ha: 100%
Cotton (CT) [3]; 2 lb/acre
  pest or weed control at 2241.7 g/ha: 80%
Cotton (CT) [3]
  pest or weed control at 4483.4 g/ha: 100%
Turnip (TP) [14]; 2 lb/acre
  pest or weed control at 2241.7 g/ha: 60%
Turnip (TP) [14]; 4 lb/acre
  pest or weed control at 4483.4 g/ha: 60%
Barnyard grass (BG) [4]; 2 lb/acre
  pest or weed control at 2241.7 g/ha: 60%
Crabgrass (CG) [15]; 2 lb/acre
  pest or weed control: 50%
Crabgrass (CG) [15]; 4 lb/acre
  pest or weed control at 4483.4 g/ha: 90%
Crabgrass (CG) [5]; 2 lb/acre
  pest or weed control: 90%
Crabgrass (CG) [5]
  pest or weed control at 4483.4 g/ha: 100%
Amaranth pigweed (PW) [16]; 2 lb/acre
  pest or weed control at 2241.7 g/ha: 100%
Amaranth pigweed (PW) [16]; 4 lb/acre
  pest or weed control at 4483.4 g/ha: 100%
Turnip (TP) [6]; 2 lb/acre
  pest or weed control at 2241.7 g/ha: 100%
Turnip (TP) [6]
  pest or weed control at 4483.4 g/ha: 100%
Barnyard grass (BG) [17]
  pest or weed control at 2241.7 g/ha: 30%
Johnson grass (JG) [7]; 2 lb/acre
  pest or weed control: 80%
Johnson grass (JG) [7]
  pest or weed control at 4483.4 g/ha: 80%
Bean (BN) [8]; 2 lb/acre
  pest or weed control at 2241.7 g/ha: 90%
Bean (BN) [8]
  pest or weed control at 4483.4 g/ha: 100%
